Reference: paper PMC6429222, “The Oligomeric State of the Plasma Membrane H^+-ATPase from Kluyveromyces lactis” (Molecules, 2019)
Where “and” joins values, the source holds several entries; their conditions need not be identical. Equal values may be shown once. Values belong to the molecule of their own block, whether it stands above or below them.

Key:
[1] = target: T1, plasma membrane H^+-ATPase hexamer, aggregated (large MAS, Peak 1) (Kluyveromyces lactis, UniProt P49380); assay: intrinsic Trp fluorescence quenching titration, Hill-type fit; type: binding
T1 construct: gene PMA1; Superose 6 Peak 1, aggregated hexamers; monomer ~100 kDa; no tag
T1 sequence (P49380 1-899): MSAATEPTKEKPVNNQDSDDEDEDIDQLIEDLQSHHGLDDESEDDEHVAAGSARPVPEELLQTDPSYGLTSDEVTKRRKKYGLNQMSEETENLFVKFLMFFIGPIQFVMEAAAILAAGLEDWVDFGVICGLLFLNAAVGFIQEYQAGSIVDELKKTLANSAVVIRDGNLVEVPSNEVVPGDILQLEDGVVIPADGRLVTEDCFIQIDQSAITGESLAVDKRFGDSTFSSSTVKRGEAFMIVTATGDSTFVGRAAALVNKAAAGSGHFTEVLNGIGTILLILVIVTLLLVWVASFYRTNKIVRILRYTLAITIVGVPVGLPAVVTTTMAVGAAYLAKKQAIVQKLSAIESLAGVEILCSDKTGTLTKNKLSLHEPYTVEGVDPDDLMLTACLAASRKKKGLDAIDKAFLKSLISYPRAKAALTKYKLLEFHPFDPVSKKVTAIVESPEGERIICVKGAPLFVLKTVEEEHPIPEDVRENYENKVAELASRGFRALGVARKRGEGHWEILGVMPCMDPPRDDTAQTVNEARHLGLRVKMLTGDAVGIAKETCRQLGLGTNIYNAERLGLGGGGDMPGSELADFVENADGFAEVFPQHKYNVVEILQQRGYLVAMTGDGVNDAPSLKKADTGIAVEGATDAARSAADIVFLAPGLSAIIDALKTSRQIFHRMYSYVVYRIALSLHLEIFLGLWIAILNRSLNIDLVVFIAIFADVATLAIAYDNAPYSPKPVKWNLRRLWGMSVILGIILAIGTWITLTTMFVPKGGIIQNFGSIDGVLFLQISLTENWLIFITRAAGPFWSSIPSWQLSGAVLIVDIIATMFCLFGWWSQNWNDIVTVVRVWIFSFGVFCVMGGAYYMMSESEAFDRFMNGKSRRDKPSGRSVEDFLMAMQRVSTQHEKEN

[2] = target: T2, plasma membrane H^+-ATPase hexamer, free (small MAS, Peak 2) (Kluyveromyces lactis, UniProt P49380); assay: as above; type: binding
T2 construct: gene PMA1; Superose 6 Peak 2, mainly free hexamers with minor monomer, dimer, tetramer; monomer ~100 kDa; no tag
T2 sequence (P49380 1-899): T1 sequence (P49380 1-899)

purified protein = substrate: Nc1ncnc2c1ncn2[C@@H]1O[C@H](COP(=O)(O)OP(=O)(O)OP(=O)(O)O)[C@@H](O)[C@H]1O; assay: purified protein; type: biochemical, Kluyveromyces lactis; conditions: 25 °C, cooperative
[3] = target: the molecule itself; assay: native gel or EMSA; BN-PAGE of SEC Peak 1 fractions (23-26); 4-15% gradient gel with 0.1 M trehalose; sample buffer 25 mM imidazole, 0.3 M trehalose, 0.25% DDM, 0.025% Coomassie blue, pH 7.0; 4 °C; silver stain
[4] = target: the molecule itself; assay: native gel or EMSA; BN-PAGE of SEC Peak 2 fractions (33-37); 4-15% gradient gel with 0.1 M trehalose; sample buffer 25 mM imidazole, 0.3 M trehalose, 0.25% DDM, 0.025% Coomassie blue, pH 7.0; 4 °C; silver stain

Kd [1]: 73.3 ± 5.8 µM
Kd [2]: 106 ± 12.6 µM
Molecule: Nc1ncnc2c1ncn2[C@@H]1O[C@H](COP(=O)(O)OP(=O)(O)CP(=O)(O)O)[C@@H](O)[C@H]1O [AMP-PCP]

Kd [1]: 136 ± 7.8 µM
Kd [2]: 190 ± 13.9 µM
Molecule: Nc1ncnc2c1ncn2[C@@H]1O[C@H](COP(=O)(O)OP(=O)(O)O)[C@@H](O)[C@H]1O [ADP]

B1: plasma membrane H^+-ATPase hexamer, aggregated (large MAS, Peak 1) (Kluyveromyces lactis NRRL Y-1140) (protein)
chain: T1 sequence (P49380 1-899)
notes: Superose 6 Peak 1, aggregated hexamers; monomer ~100 kDa; no tag
K0.5 (purified protein; Hill n = 1.98 ± 0.21): 329 ± 19 µM

B2: plasma membrane H^+-ATPase hexamer, free (small MAS, Peak 2) (Kluyveromyces lactis NRRL Y-1140) (protein)
chain: T1 sequence (P49380 1-899)
notes: Superose 6 Peak 2, mainly free hexamers with minor monomer, dimer, tetramer; monomer ~100 kDa; no tag
K0.5 (purified protein; Hill n = 1.82 ± 0.22): 364 ± 28 µM

B3: plasma membrane H^+-ATPase from Kluyveromyces lactis (enzyme, UniProt P49380 1-899, looked up)
chain: T1 sequence (P49380 1-899)
notes: plasma membrane H^+-ATPase (Pma1) of Kluyveromyces lactis, endogenous enzyme; monomer band of ~100 kDa on SDS-PAGE; also called Pma1; H^+-ATPase hexamer; source: also in isolated plasma membranes treated with DDM
stoichiometry N [3]: 6
stoichiometry N [4]: 2 and 4
